{"source": "paper PMC5983452", "about": "(PLoS ONE, 2018)", "key": {"[1]": {"assay_type": "in vitro ADME", "details": "plasma", "protocol": "After stirred for 30 min at 25 °C, NaBH3CN […]\nmixture was concentrated under vacuum. […] The combined organic […]\nThe crude product was further\nThe fractions containing product were combined and concentrated. […]\ncyclopropylisoxazole-3-carboxamide hydrochloride as a light yellow solid.\nMedia was changed every two or three days. On\n95% at 37°C. […] Cells were\nAt 120 min the companion plate was\nPermeability was assessed in duplicate, on two […]\ndifferent occasions. […] Compounds were quantified by LC-MS/MS analysis using a 5 point calibration curve.\nThe permeability coefficient\nSolutions of test compounds (1 µM, 0.5% final\nIncubations were performed in\nHaloperidol was incubated in parallel as the control compound for each species.\n(7 points) and protein containing solutions (6 points).\nLiver microsome (LM) stability. […]\nthe reaction. The final incubation volume was 50 µL. Negative control incubations were included where phosphate buffer was […]\nmin. The negative controls were incubated for 45 min only. […]\nµL methanol at the appropriate time points.\nSubsequently, intrinsic CL (CLint) was […]"}, "[2]": {"assay": "in vitro", "assay_type": "in vitro ADME, SD rats", "details": "male, Sprague-Dawley"}, "[3]": {"assay": "in vitro", "assay_type": "in vitro ADME, humans"}, "[4]": {"assay": "Hepatocyte stability, dog", "assay_type": "in vitro ADME, beagle dogs", "details": "male, beagle, cryopreserved hepatocytes, read-out: CLint measured with hepatocytes, Dog"}, "[5]": {"assay": "Hepatocyte stability, monkey", "assay_type": "in vitro ADME, cyno-monkeys", "details": "male, cryopreserved hepatocytes, read-out: CLint measured with hepatocytes, Monkey"}, "[6]": {"tested_on": "lung cancer cell lines", "details": "read-out: impact on proliferation of NSCLC and other lung cancer cell lines (none at concentrations as high as)"}, "[7]": {"tested_on": "KYSE-150", "assay": "Cell proliferation, KYSE-150", "assay_type": "cell-based", "details": "Homo sapiens, read-out: Cellular Proliferation IC50", "protocol": "Cell lines used in these experiments were obtained from the following sources and were cultured according to conditions specified by the respective cell banks. […] The cell lines listed above were tested for mycoplasma and were negative. Cells were authenticated by STR method or vendor protocols. All 313 cell lines in the CRIPSR pooled screen were purchased from commercial vendors and were STR authenticated and mycoplasma negative. A broad panel of cancer cell lines was screened in the Eurofins Oncopanel. All cells in this panel were mycoplasma negative and STR verified.\nThus, 5 compounds representing 4 distinct pharmacophore series of SMYD2 inhibitors are now available for testing the dependence of cancer lines on SMYD2 activity. […] In stark contrast, however, no correlation is seen between the potency for BTF3 methylation inhibition and anti-proliferative activity among these compounds (Fig 3B)."}, "[8]": {"biological_target": "T1, SMYD3 (Homo sapiens, UniProt Q9H7B4)", "T1 sequence (Q9H7B4 1-428)": "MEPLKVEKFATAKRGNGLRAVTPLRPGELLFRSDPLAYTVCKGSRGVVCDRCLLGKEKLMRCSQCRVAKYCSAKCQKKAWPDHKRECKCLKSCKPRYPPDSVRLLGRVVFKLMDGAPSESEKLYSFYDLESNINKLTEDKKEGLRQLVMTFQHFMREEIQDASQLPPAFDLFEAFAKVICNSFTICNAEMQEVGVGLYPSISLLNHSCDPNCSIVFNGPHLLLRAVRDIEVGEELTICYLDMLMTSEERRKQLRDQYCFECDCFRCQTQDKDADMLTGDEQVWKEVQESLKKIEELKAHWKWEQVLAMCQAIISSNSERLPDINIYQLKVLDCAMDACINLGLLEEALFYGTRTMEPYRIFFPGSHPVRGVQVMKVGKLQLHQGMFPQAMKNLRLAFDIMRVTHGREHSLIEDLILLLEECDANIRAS", "assay": "SMYD3 biochemical methylation assay (3H-SAM, GST-MAP3K2/MEKK2 substrate)", "design": "Protein purification of both isoforms of full length SMYD3 was performed as previously reported; made in house", "details": "tested in duplicate; read-out: selectivity panel result, SMYD3 (off-target)", "protocol": "SMYD3 assays were performed as previously described using N-terminally GST-tagged MAP3K2 protein substrate. […] Reactions were conducted at room temperature with enzyme and inhibitor incubated for 30 minutes before initiating the reaction with substrates. Dose-response curves were tested in duplicate in each experiment. […] Quenched reactions were transferred to a streptavidin-coated flashplate (Perkin Elmer) for capture of the biotinylated peptide. After 2 h incubation at room temperature, the flashplate was washed once with 0.1% Tween-20 and read on a Perkin Elmer Topcount NXT plate reader. Substrate apparent KM values were determined by measuring the initial velocities (v0) in duplicate while varying one substrate at fixed concentration of the second substrate.\nMechanism of inhibition was determined by measuring the inhibitor IC50 values while varying the concentration of one substrate at a fixed concentration of the second substrate equal to its KM value."}}, "note": "Structures can show the parent of a compound that is named as a salt."}
{"smiles": "NC1CCC(S(=O)(=O)N2C3CCC2CC(NC(=O)c2cc(C4CC4)on2)C3)CC1", "note": "[EPZ028862, N-((1R,3R,5S)-8-((1r,4R)-4-aminocyclohexylsulfonyl)-8-aza-bicyclo[3.2.1]octan-3-yl)-5-cyclopropylisoxazole-3-carboxamide hydrochloride]", "values": [{"measurement": "Monkey fu (unbound fraction)", "setting": "[1]", "value": "highly bound"}, {"measurement": "CLint measured with liver microsomes, Rat", "setting": "[2]; 1 µM, pH 7.4", "value": "3.4 µL/min/mg microsomal protein"}, {"measurement": "microsomal CLint at 1 µM", "setting": "[2]; rat, microsomes, pH 7.4, CLint measured with liver microsomes", "value": "< 3", "unit": "µL/min/mg"}, {"measurement": "microsomal CLint at 1 µM", "setting": "[3]; both sexes, human, microsomes, pH 7.4, CLint measured with liver microsomes", "value": "< 3", "unit": "µL/min/mg"}, {"measurement": "CLint measured with liver microsomes, Human", "setting": "[3]; both, 1 µM, pH 7.4", "value": "3.3 µL/min/mg microsomal protein"}, {"measurement": "hepatocyte CLint at 1 µM", "setting": "[4]", "value": "< 3", "unit": "µL/min/1e6 cells"}, {"measurement": "hepatocyte CLint at 1 µM", "setting": "[5]", "value": 3.2, "unit": "µL/min/1e6 cells"}, {"measurement": "IC50", "setting": "[6]", "value": "> 25", "unit": "µM"}]}
{"smiles": "O=C(NC1CN(Cc2cnn(Cc3ccc(Cl)cc3)c2)C1)c1cn(C2CC2)nn1", "note": "[EPZ033294]", "values": [{"measurement": "IC50", "setting": "[7]", "value": "> 40", "unit": "µM"}, {"measurement": "IC50", "setting": "[8]", "value": "> 10", "unit": "µM"}]}
